Source: publication PMC11793105, “A kalihinol analog disrupts apicoplast function and vesicular trafficking in P. falciparum malaria” (Science (New York, N.Y.), 2024)

Tests used:
[1] = Tolerability study and toxicological profile; assay type: in vivo, Male CD1 mouse; settings: for adverse effects (Functional Observational Battery): oral
Experimental: Tolerability studies used Male CD1 (20-22 g Envigo).
Blood samples for analysis were carried out in the Abacus5 junior Vet (Practice CVM S.L.L). Clinical chemistry was performed by mean analysis of whole blood in Vetscan (ABAXIS) and F560 (Menarini) analyzer and by mean analysis of plasma.
Tolerability study Male CD1 (20-22g Envigo) were used in tolerability studies.
All animal studies were ethically reviewed and carried out in accordance with European Directive
were housed in cages (Tecniplast®). The cages contained autoclaved dust free corncob bedding
(Rehofix MK2000, 1.7-2.2 mm particle size) and carry filters covers. Animal maintenance
standard g-irradiated standard rodent diet (Envigo Teklad 2914) and ultra-filtered water was
provided ad libitum. Environmental conditions: Photoperiods, simulated dawn/dusk facility, were
adjusted to 12h of light (300 lux) and 12h darkness daily. The temperature range was 22± 2 °C.
Relative humidity was 55% ± 10 and the air room was changed 15-20 times per hour.
Environmental enrichment included nesting material (nesting cups, LBS), a red-tinted igloo
(Datesand), a hanging clear tunnel (Datesand, and two wood blocks (Datensand).
Protocol design Male CD1 mouse (n=1) was dosed with an initial dose at 100 mg/kg (1-day, oral
route, once a day, 10ml/kg). The animals were observed during the first four hours after
administration and after 24h. The neurobehavioral assessment Functional Observational Battery
the modified symptom-based Up-&-Down method and adjusted a constant factor (1.6). Other male
Two mice were treated at 50
To confirm the data, 3 animals per dose
(100mg/kg and 63.4 mg/kg) and vehicle group with 1% Methylcellulose + 0.5% Tween (n=2) were
dosed. Systemic exposure levels at different times were taken (0.5h, 2h, 4h, 8, 24, 48h) of treated
animals (n=3 per group) and a toxicological profile was performed after 7 days of treatment
(hematology, clinical chemistry, and necropsy). Additionally in the same animals with the same
scheduling sampling, blood samples of 15 uL were taken from lateral tail vein and recovered in a
vial with the same quantity of water, mix and freeze until bioanalytical quantification for the
determination of blood level exposures and pharmacokinetic analysis.
Toxicological Profile The bodyweight of animals was recorded before dosage, 24 hours after and
every day in animals kept for 7 days. Any sign of toxicity was recorded for 4h and 24h hours after
drug administration (Functional Observational Battery). All animals were sacrificed by CO2
inhalation. Blood samples for analysis were then taken by intracardiac puncture and fractionated
to blood recount and serum analysis. The blood recount was carried out in the Abacus5 junior Vet
→ (Practice CVM S.L.L). Clinical chemistry was performed by mean analysis of whole blood in
Vetscan→ (ABAXIS) & F560 (Menarini→) analyzer and by mean analysis of plasma, obtained
after centrifugation at 1800g rpm for 10 min in S-Microvette tubes (Sarstedt→) with Heparin-
Lithium. The plasma parameters tested were: glucose, ALP, AST, ALT, GGT, LDH, AMY, CK
Calcium, Phosphate, Sodium, Potassium, total bilirrubin, total protein, albumin, blood ureic
nitrogen (BUN), creatinine, triglycerides, cholesterol. After necropsy, several organs (liver,
kidney, spleen, Caecum, and stomach) were removed and weighed. Liver, kidney, and spleen were
fixed in formalin (formaldehyde 10%) to further histopathology study (Hematoxilin/Eosin stain).

[2] = test system: P. knowlesi YH1 rhesus erythrocyte infecting parasites; test: P. knowlesi in vitro IC50 assay (flow cytometry), rhesus erythrocytes; assay type: cell-based; settings: Plasmodium knowlesi, in Macaca mulatta
Experimental: Fig. 5. In vivo and broad-spectrum antimalarial efficacy of MED6-189. (A) The in vivo efficacy of MED6-189 was evaluated in a humanized mouse model infected with P. falciparum (blue) compared with untreated controls (black). […] The graphs illustrate the logarithmic growth of parasites (y axis) in response to varying drug concentrations (x axis). Error bars represent standard deviations from two independent experiments conducted in triplicate. The regression line is derived from a nonlinear regression analysis (variable slope with four parameters, least squares fit). (C) Proposed mode of action of MED6-189 in P. falciparum–infected erythrocytes. […]
Detailed information on materials and methods is available in the supplementary materials. […] P. knowlesi assays were quantitatively measured by flow cytometry using SYBR Green I and Mitrotracker Deep Red, as previously described ([84], [85]), on a Beckman Coulter CytoFLEX. […]
P. falciparum in vitro SYBR green fluorescence-based assays The anti-malarial activity of individual analogues were evaluated in-vitro against P. falciparum 3D7 (MRA-102, drug […]
green-I based fluorescence assay. Parasite growth rate and stages of development were determined via microscopy through Giemsa-stained smears of the cultures. […]

[3] = target: BSEP (bile salt export pump) (Homo sapiens, UniProt O95342); test: Enhanced Cross Screen Panel (eXP): BSEP inhibition
BSEP (bile salt export pump), sequence (O95342 whole entry, species assumed): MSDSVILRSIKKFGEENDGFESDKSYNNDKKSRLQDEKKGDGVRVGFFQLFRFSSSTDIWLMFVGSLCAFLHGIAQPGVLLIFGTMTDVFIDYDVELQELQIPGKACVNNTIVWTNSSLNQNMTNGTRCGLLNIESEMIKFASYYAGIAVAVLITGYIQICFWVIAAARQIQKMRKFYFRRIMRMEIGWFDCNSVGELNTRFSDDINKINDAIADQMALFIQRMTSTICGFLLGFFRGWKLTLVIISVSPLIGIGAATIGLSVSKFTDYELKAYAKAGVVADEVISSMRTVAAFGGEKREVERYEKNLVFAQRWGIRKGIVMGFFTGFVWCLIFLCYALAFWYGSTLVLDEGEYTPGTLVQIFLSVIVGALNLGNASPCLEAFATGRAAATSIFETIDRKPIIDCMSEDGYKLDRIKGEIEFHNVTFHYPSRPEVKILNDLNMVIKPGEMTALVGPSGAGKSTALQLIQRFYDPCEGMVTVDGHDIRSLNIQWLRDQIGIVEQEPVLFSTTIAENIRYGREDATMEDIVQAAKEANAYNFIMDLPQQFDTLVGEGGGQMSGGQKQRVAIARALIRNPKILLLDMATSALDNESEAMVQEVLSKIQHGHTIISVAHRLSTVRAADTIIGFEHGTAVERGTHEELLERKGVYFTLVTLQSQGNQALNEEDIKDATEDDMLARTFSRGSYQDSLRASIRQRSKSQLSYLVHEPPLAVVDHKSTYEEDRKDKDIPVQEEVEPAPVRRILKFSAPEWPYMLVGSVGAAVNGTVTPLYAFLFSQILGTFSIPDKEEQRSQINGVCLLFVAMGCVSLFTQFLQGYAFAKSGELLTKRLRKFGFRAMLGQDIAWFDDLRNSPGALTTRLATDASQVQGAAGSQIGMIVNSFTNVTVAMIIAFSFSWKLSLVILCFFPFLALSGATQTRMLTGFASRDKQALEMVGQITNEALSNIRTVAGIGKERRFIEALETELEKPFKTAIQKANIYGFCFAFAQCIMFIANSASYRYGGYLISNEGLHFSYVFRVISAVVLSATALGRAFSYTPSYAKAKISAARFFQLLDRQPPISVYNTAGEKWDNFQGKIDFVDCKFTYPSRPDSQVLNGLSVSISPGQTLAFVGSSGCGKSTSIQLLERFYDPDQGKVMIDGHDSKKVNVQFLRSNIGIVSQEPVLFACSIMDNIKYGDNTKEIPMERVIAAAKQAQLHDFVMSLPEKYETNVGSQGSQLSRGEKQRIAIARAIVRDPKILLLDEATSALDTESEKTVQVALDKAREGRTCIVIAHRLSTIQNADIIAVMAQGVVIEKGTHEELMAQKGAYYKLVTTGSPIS

[4] = test system: synchronized P. falciparum 3D7 parasites; test: Parasitemia and asexual stage phenotype analyses; assay type: cell-based, Plasmodium falciparum; settings: IC80, synchronized 3D7, second IEC
Experimental: Fig. 1. […] (B) SYBR Green–based dose response assays were conducted on early-ring stage parasites (6 hours after invasion). […] 3D7 WT (blue), NF54 (green), drug-resistant strains Dd2 (red), HB3 (black), W2 (gray), and D10-ACP-GFP (purple) lines (Sigmoidal, 4PL, X is concentration, n ≥ 3, nonlinear regression, CI: 95%). (C) Schematic diagram of the development of P. falciparum after two consecutive erythrocytic cycles. The time points at which MED6-189 was introduced are depicted in green. HPS, hours post synchronization. […] The images depict various developmental stages of the parasite’s intraerythrocytic life cycle. Bordered images represent time points when drug was first introduced (n = 3 biological replicates, P < 0.05). […]
Data analysis The percentage of parasitized erythrocytes was determined by enumerating the number of Hoechst positive events out of the total erythrocytes after excluding non-single cells by forward and side scatter. The percent survival was calculated by averaging the parasitemia in the triplicates for each condition and then dividing by the parasitemia observed in the wells that did not receive drug treatment. The IC50 was then calculated using GraphPad Prism 9 (GraphPad […]
hrs. […] Parasitemia and proportion of the different asexual blood stages were determined by counting Giemsa-stained blood smears by light microscopy at every 12-hour time point. […]

[C-]#[N+][C@]1(C)CC[C@H]2[C@@H]([C@@H](C(C)C)CC[C@]2(C)[N+]#[C-])[C@H]1O [MED6-189]
adverse effects (Functional Observational Battery) ([1]; 50 mg/kg, two mice): didn´t show adverse effects | adverse effects (Functional Observational Battery) ([1]; 62.5mg/kg, one mouse): showed adverse effects | adverse effects (Functional Observational Battery) ([1]; 100 mg/kg, once, n=1): Adverse effects were found | adverse events ([1]; doses up to 50 mg/kg): did not exhibit any adverse events | hematology, clinical chemistry, necropsy ([1]; doses up to 50 mg/kg): no significant changes | IC50 [2]: 0.276 ± 0.022 µM | IC50 [3]: 50 µM | effect on asexual intraerythrocytic development [4]: unable to fully undergo schizogony or reinvasion
